Measurements reported in patent US7763580B2, “Methods for treating conditions associated with the accumulation of excess extracellular matrix” (University of Utah Research Foundation, priority 1999, dated 2010).

Legend:
[1] = tested on: anti-Thy 1 glomerulonephritis; assay: Glomerular production of fibronectin, PAI-1 and TGF-β1 (ELISA of cultured glomeruli); assay type: in vivo, Sprague Dawley rats; conditions: enalapril alone
Method: Animal housing and care were in accordance with the NIH Guide for the Care and Use of Laboratory Animals, NIH Publication No. 85-23, 1985. Animals were fed a normal protein diet (22% protein, Teklad No. 86 550, Teklad Premier Laboratory Diets, Madison, Wis., USA). Glomerulonephritis was induced by tail vein injection of 2.25 mg/Kg of the monoclonal anti-Thy 1.1 antibody OX-7 (NCCC, Biovest International Inc, Minneapolis, Minn., USA). OX-7 binds to a Thy 1-like epitope on the surface of mesangial cells causing complement-dependent cell lysis followed by fibrotic tissue repair (Bagchus et al., Lab Invest. 55:680-687 (1986)). Control animals were injected with similar volumes of phosphate-buffered saline (PBS). Groups of 8 rats were assigned and treated as outlined in Table 2. Doses of enalapril above […] in drinking water are maximally effective in this model (Peters et al., Kidney Int. 54:1570-1580 (1998)). […] Fibronectin and PAI-1 synthesis were measured with modified ELISA assays according to published methods ([…] al., Anal Biochem 104:205-214 (1980)). TGF-β1 production of cultured glomeruli was measured after acid-activation using a commercially available ELISA kit (DuoSet®, R&D Systems, Minneapolis, Minn., USA) according to the manufacturer's instructions. Three samples from each rat were analyzed. […] The percent reduction in disease severity in a treated group was calculated as: […]

[2] = tested on: anti-Thy 1 glomerulonephritis; assay: Glomerular p-Smad2 (Western blot); assay type: in vivo, Sprague Dawley rats; conditions: enalapril alone
Method: These experiments were performed on male Sprague Dawley rats (200-250 g) obtained from the Sasco colony of Charles River Laboratories (Wilmington, Mass., USA). Animal housing and care were in accordance with the NIH Guide for the Care and Use of Laboratory Animals, NIH Publication No. 85-23, 1985. Animals were fed a normal protein diet (22% protein, Teklad No. 86 550, Teklad Premier Laboratory Diets, Madison, Wis., USA). Glomerulonephritis was induced by tail vein injection of 2.25 mg/Kg of the monoclonal anti-Thy 1.1 antibody OX-7 (NCCC, Biovest International Inc, Minneapolis, Minn., USA). OX-7 binds to a Thy 1-like epitope on the surface of mesangial cells causing complement-dependent cell lysis followed by fibrotic tissue repair (Bagchus et al., Lab Invest. 55:680-687 (1986)). Control animals were injected with similar volumes of phosphate-buffered saline (PBS). Groups of 8 rats were assigned and treated as outlined in Table 2. […] Bound antibodies were detected by developing the blot in ECL™ Western blotting detection reagents (Amersham Pharmacia Biotech) for 1 min. Quantitation of the bands on autoradiograms was performed using a BIO-RAD GS-700 imaging densitometer. Changes in p-Smad2 levels were determined by correcting for the densitometric intensity of β-actin for each sample. […] The percent reduction in disease severity in a treated group was calculated as: […]

CCOC(=O)[C@H](CCc1ccccc1)N[C@@H](C)C(=O)N1CCC[C@H]1C(=O)O [enalapril]
reduction of fibronectin production [1]: 53%
reduction of Smad2 activation (p-Smad2) [2]: 36%
